From patent publication US10509046B2, “Detection of indazole synthetic cannabinoids” (Randox Laboratories Limited, priority 2014, dated 2019)
Structures can show the parent of a compound that is named as a salt.

Columns and labels:
[1] = system: Antibody to AB-Pinaca-KLH (raised against immunogen 2 of Example 6); assay: Competitive ELISA characterising antibodies to AB-Pinaca-KLH with Tracer-1 (Example 9); format: binding; conditions: for % CR (percentage cross-reactivity): AB-Pinaca = 100.00; for IC50 (standard concentration which produces 50% inhibition of maximal signal): calibration curves 0-20 ng/ml
Procedure: The wells of an enhanced binding 96 well polystyrene microtitre plate were coated with IgG fraction of antiserum raised to AB-Pinaca-KLH (Immunogen 2 of Example 6), diluted in 10 mM Tris, pH8.5 (125 μl/well). The appropriate antibody coating dilution was determined using standard ELISA checkerboard techniques. The plate was incubated for 2 hours at 37° C., washed 4 times over 10 minutes with Tris buffered saline containing Tween 20 (TBST) and tapped dry. Standard solutions of AB-Pinaca pentanoic acid were prepared in TBST at 0, 0.31, 0.63, 1.25, 2.50, 5.0, 10.0 and 20.0 ng/ml, and 50 μl of each was added to the appropriate wells. 75 μl of Tracer-1 (Example 7) diluted in Tris buffer (pH 7.2) containing EDTA, D-mannitol, sucrose, thimerosal and BSA, was added to each of the wells. The appropriate dilution of tracer was also determined using standard ELISA checkerboard techniques. The plate was incubated at 25° C. for 1 hour. Excess unbound tracer was removed by washing 6 times over a 10-15 minute period with TBST and tapped dry. 125 μl of tetramethylbenzidine (TMB) substrate solution was added to each well of the plate that was then incubated for 20 minutes in the dark at room temperature. The reaction was terminated by addition of 125 μl 0.2 M H2SO4 to each well. The absorbance was measured at 450 nm using a microtitre plate reader. In order to determine the specificity of the competitive ELISAs, standard solutions of a range of structurally similar compounds were prepared in TBST. Using calibration curves generated from these compounds (0-20 ng/ml), the cross-reactivity was determined.

[2] = system: AB-PINACA antibody (raised against immunogen 2 of Example 6); assay: AB-PINACA ELISA, final validated kit with Tracer-2 (Example 10), specificity; format: binding; conditions: for % Cross-Reactivity: AB-PINACA N-Pentanoic acid = 100
Procedure: A microtitre plates was precoated with AB-PINACA antibody (raised against immunogen 2 of Example 6). Pinaca derivative (antigen), if present in the sample competes with the horseradish peroxidase labelled AB-PINACA (enzyme labelled antigen, herein Tracer-2 of Example 8) for a limited number of antibody sites on the microtitre plate. After incubation at room temperature to allow a competition reaction to take place, the microtitre plate was washed to remove excess reagents. The enzyme substrate ([…]) was added. After an incubation period to allow maximum colour development, the colour reaction was stopped by the addition of acid. This produces a colour change from blue to yellow, and the absorbances are read at 450 nm. A standard curve was then constructed to determine the Pinaca derivative's concentration in the sample.
All reagents were left to reach room temperature (+15 to +25° C.) prior to use. In order to minimise edge effects microtitre plate was sealed with an adhesive plate sealer.
The assay was performed in duplicate. The following layout was used for a test plate where each box represents 2 wells.
• a) The following was pipetted into the appropriate wells of the microtitre plate:
• b) The microtitre plate was gently tapped plate from side to side for a few seconds. • c) The microtitre plate was covered with a plate sealer before incubating for 30 minutes at room temperature (+15 to +25° C.) in the dark. • d) The plate was inverted and the liquid was tapped out. • e) The plate was washed 6 times with diluted wash buffer (ensuring all wells were filled), over a 10-15 minute period. After the final wash the liquid was discarded and the plate was tapped onto lint free tissue paper until completely dry. • f) Immediately after washing, 125 μL of the one shot substrate II solution was pipetted into each well using a multichannel pipette. The microtitre plate was gently tapped from side to side and incubated for (20±2 minutes) at room temperature (+15 to +25° C.) in the dark. • g) The colour reaction was stopped by the addition of 100 μL of stop solution per well. A colour change from blue to yellow should be evident. • h) The optical density was measured at 450 nm within 10 minutes of stopping the colour reaction. The use of a 630 nm filter is recommended as the reference wavelength, if available. Standard Curve and Interpretation of Results • a) The mean absorbance of the standards, controls and samples were calculated. • b) The absorbances of standards against log10 (standard concentration) were plotted. • c) The control and sample concentrations were read from the standard curve. • d) To obtain concentrations for urine samples in ng/mL, the results were multiplied by 3 to take into account the dilution factor. • e) To obtain concentrations for whole blood samples in ng/mL, the results were multiplied by 4 to take into account the dilution factor. • f) It is recommended that a 4 parameter curve fit method is used when generating the standard curve. Limits of Detection

SMILES	% CR (percentage cross-reactivity) [1]	IC50 (standard concentration which produces 50% inhibition of maximal signal) [1]	B/Bo (Percentage B/B0) ([1]; standard conc 0.31 ng/ml)	OD (absorbance at 450 nm) ([1]; standard conc 0.31 ng/ml)	B/Bo (Percentage B/B0) ([1]; standard conc 0.63 ng/ml)	OD (absorbance at 450 nm) ([1]; standard conc 0.63 ng/ml)	B/Bo (Percentage B/B0) ([1]; standard conc 1.25 ng/ml)	OD (absorbance at 450 nm) ([1]; standard conc 1.25 ng/ml)	B/Bo (Percentage B/B0) ([1]; standard conc 2.50 ng/ml)	OD (absorbance at 450 nm) ([1]; standard conc 2.50 ng/ml)	B/Bo (Percentage B/B0) ([1]; standard conc 5.00 ng/ml)	OD (absorbance at 450 nm) ([1]; standard conc 5.00 ng/ml)	B/Bo (Percentage B/B0) ([1]; standard conc 10.00 ng/ml)	OD (absorbance at 450 nm) ([1]; standard conc 10.00 ng/ml)	B/Bo (Percentage B/B0) ([1]; standard conc 20.00 ng/ml)	OD (absorbance at 450 nm) ([1]; standard conc 20.00 ng/ml)	% Cross-Reactivity [2]	Concentration of compounds that elicit a negative response at the indicated concentration [2]
CC(C)C(NC(=O)c1nn(CCCCCO)c2ccccc12)C(N)=O (stereo not shown) [1-(5-OHpentyl) AB-Pinaca, 1-(5-hydroxypentyl) AB-Pinaca]	124.80%	0.887 ng/mL	68.9%	1.415	56.6%	1.163	43.6%	0.896	33.6%	0.690	24.5%	0.504	17.3%	0.356	11.8%	0.242	83.8%	–
CC(C)C(NC(=O)c1nn(CCCCCF)c2ccccc12)C(N)=O (stereo not shown) [5-fluoro AB-Pinaca, 5-fluoropentyl AB-Pinaca]	203.49%	0.544 ng/mL	60.2%	1.351	47.7%	1.070	36.5%	0.819	28.0%	0.629	20.6%	0.462	14.5%	0.326	10.1%	0.227	98.9%	–
CC(C)C(NC(=O)c1nn(Cc2ccc(F)cc2)c2ccccc12)C(N)=O (stereo not shown) [AB-Fubinaca, N-(1-amino-3-methyl-1-oxobutan-2-yl)-1-(4-fluorobenzyl)-1H-indazole-3-carboxamide]	71.60%	1.546 ng/mL	72.0%	1.541	64.4%	1.379	52.3%	1.120	42.7%	0.915	32.4%	0.695	22.9%	0.491	15.7%	0.337	35.3%	–
CC(C)C(NC(=O)c1nn(CCCCC(=O)O)c2ccccc12)C(N)=O (stereo not shown) [AB-Pinaca pentanoic acid]	64.25%	1.723 ng/mL	77.4%	1.698	69.7%	1.529	55.8%	1.223	42.2%	0.926	30.7%	0.673	21.2%	0.465	14.5%	0.317	100%	–
CCCCCn1nc(C(=O)NC(C(N)=O)C(C)C)c2ccccc21 (stereo not shown) [AB-Pinaca, N-(1-amino-3-methyl-1-oxobutan-2-yl)-1-pentyl-1H-indazole-3-carboxamide]	100.00%	1.107 ng/mL	70.1%	1.532	60.7%	1.325	47.4%	1.036	35.6%	0.778	27.2%	0.593	18.5%	0.404	12.2%	0.267	52.4%	–
COc1cccc2c(C(=O)N[C@@H]3C(C)(C)[C@@H]4CC[C@@]3(C)C4)cn(CCN3CCOCC3)c12 [MN-25]	–	–	–	–	–	–	–	–	–	–	–	–	–	–	–	–	<1%	–
CN(C)C(=N)N=C(N)N [Metformin HCl]	–	–	–	–	–	–	–	–	–	–	–	–	–	–	–	–	–	10000 ng/mL
CCCCCn1cc(C(=O)Nc2cccc3ccccc23)c2ccccc21 [NNEI]	–	–	–	–	–	–	–	–	–	–	–	–	–	–	–	–	–	100 ng/mL
CCCCCn1cc(C(=O)O)c2ccccc21 [PB-22 3-Carboxyindole metabolite]	–	–	–	–	–	–	–	–	–	–	–	–	–	–	–	–	–	100 ng/mL
O=C(Oc1cccc2cccnc12)c1cn(CCCCCO)c2ccccc12 [PB-22 N-(5-hydroxypentyl) metabolite]	–	–	–	–	–	–	–	–	–	–	–	–	–	–	–	–	<1%	–
O=C(O)CCCCn1cc(C(=O)Oc2cccc3cccnc23)c2ccccc21 [PB-22 N-Pentanoic acid]	–	–	–	–	–	–	–	–	–	–	–	–	–	–	–	–	<1%	–
